What all share (assay): growth of human tumour cells (NCI), 48 h
The test system of experiment [1] is SR leukemia.
Experiment [2] relates to SK-OV-3 ovarian.
The subject of experiment [3] is OVCAR-8 ovarian.
For experiment [4], the system named is OVCAR-5 ovarian.
Experiment [5] deals with NCI-H460 lung.
The test system of experiment [6] is LOX IMVI melanoma.
Experiment [7] deals with RXF 393 renal.
Experiment [8] deals with PC-3 prostate.
For experiment [9], the system named is T-47D breast.
For experiment [10], the system named is MDA-MB-231 breast.
Experiment [11] has as its system MCF7 breast.

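Interpolation was linear, between the two tested concentrations surrounding the appropriate level; five concentrations were tested over 48 hours in 96-well plates. The concentration for 50% growth inhibition is given as GI50. TGI marks complete inhibition of growth.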

Regarding `CCOC(=O)c1ccn2c(c1)c(C#N)c1nc3ccccc3nc12`, the TGI in [1], in [2], in experiment [3], in experiment [4], in experiment [5] and in experiment [6] was greater than 100 µM throughout.
Regarding `CC(=O)OCC1=CC2CCC3C(C)(CCC[C@]3(C)COC(C)=O)C23CC[C@H]1C3` (some centres not stated), the TGI in [1] is 76.5 µM; in [2], greater than 100 µM; in [7], 93 µM; in experiment [3], greater than 100 µM; in experiment [4] it was greater than 100 µM; in experiment [5], greater than 100 µM. The TGI in experiment [6] stood at 62.3 µM.
For the compound `COc1cc2c(cc1OC)[C@H]1C(COC(=O)Nc3ccccc3)CN1CC2` (some centres not stated), the TGI in [1], in experiment [2], in experiment [7], in [3], in experiment [4] and in [5] was greater than 100 µM each time. For the same compound, in [6], the TGI was greater than 100 µM.
Turning to `Clc1ccc(N2N=C(c3cccc(Nc4ccncc4)c3)CC2c2ccc(Br)cc2)cc1` (configuration not stated), the GI50 in experiment [2] is 2 µM; in [7], 1.62 µM; in experiment [4], 1.66 µM; in experiment [8], 1.57 µM; in [5], 1.85 µM. Besides, the TGI in [2] came to 3.92 µM; in experiment [7], 3.02 µM; in experiment [4], 3.1 µM; in [8], 3.19 µM; in experiment [5], 3.53 µM.
On to `COC1OC(Cn2cc([N+](=O)[O-])nc2C)C(O)C(O)C1O` (configuration not stated), for which the TGI in [1], in [2], in [7], in experiment [4], in [9] and in [8] was greater than 100 µM each time. Moreover, the TGI in experiment [10], in experiment [5] and in [11] was greater than 100 µM each time.
As to `O=C(NCc1ccccc1)C1C(=O)C(=O)N(Cc2ccccc2)C1=O` (configuration not stated), the TGI in experiment [1], in experiment [2], in experiment [7], in [3], in experiment [4] and in experiment [5] was greater than 100 µM throughout. This compound came in with a TGI in experiment [6] greater than 100 µM.
Take `COC(=O)CNC(=O)CSc1nnc(COc2ccc(Cl)cc2)n1-c1ccccc1`: the TGI in experiment [2] was greater than 100 µM; in experiment [7], 51.1 µM; in experiment [3], 92.9 µM; in experiment [4], greater than 100 µM; in experiment [9], greater than 100 µM; in [8], 51.2 µM. The TGI is 49.1 µM in experiment [10], greater than 100 µM in experiment [5], greater than 100 µM in experiment [11] and greater than 100 µM in experiment [6].
Take `CC[C@]1(Cc2ccc(OC)c(OC)c2)C=[N+]([O-])O[C@H](OCc2ccccc2)[C@@H]1OC(C)=O`: the TGI in experiment [1] was 48.2 µM; in experiment [2], greater than 100 µM; in experiment [7], 55.4 µM; in [3] it was greater than 100 µM; in [4], greater than 100 µM; in experiment [9], greater than 100 µM. The TGI was 64.3 µM in experiment [8]; greater than 100 µM in experiment [10]; greater than 100 µM in [5]; greater than 100 µM in [11]; 39.5 µM in experiment [6].
In the case of `O=C(O)CCC(NC(=O)c1ccc(CNc2nc3cc(C(F)(F)F)ccc3nc2C(=O)O)cc1)C(=O)O` (configuration not stated), the TGI in [1], in experiment [2], in [7], in [3], in [4] and in experiment [9] was greater than 100 µM each time. Besides, the TGI in experiment [8], in [5] and in [6] was greater than 100 µM throughout.
With `O=c1[nH]c(=O)n(C2CC(O)C(COP(=O)(OCC(Cl)(Cl)Cl)OCC(Cl)(Cl)Cl)O2)cc1F` (configuration not stated), the TGI in [1], in experiment [2], in [3], in experiment [4], in experiment [9] and in experiment [8] was greater than 100 µM in each case. Further, the TGI in experiment [10], in experiment [5], in experiment [11] and in [6] was greater than 100 µM throughout.
Regarding `COc1cc2cnc3c4cc(OC)c(OC(C)C)cc4ccc3c2cc1OC`, the TGI in experiment [1], in experiment [2], in [7], in experiment [3], in [4] and in experiment [5] was greater than 100 µM throughout. Moreover, the TGI in [6] was greater than 100 µM.
For the compound `COC(=O)/C(=N\N)C(C(=O)C(=O)Nc1nc(=S)[nH][nH]1)c1nc2ccc([N+](=O)[O-])cc2[nH]c1=O` (configuration not stated), the TGI in experiment [1], in experiment [2], in [7], in experiment [3], in [4] and in experiment [5] was greater than 100 µM throughout. The compound further gave a TGI in experiment [6] greater than 100 µM.
As to `COc1cccc(CCn2c(N)c(C#N)c3ccc([N+](=O)[O-])cc3c2=O)c1`, the TGI in experiment [1] is 0.922 µM; in experiment [2], greater than 31.6 µM; in experiment [3], greater than 46.4 µM; in [4], greater than 31.6 µM; in [9], greater than 46.4 µM; in experiment [8] it was greater than 46.4 µM. Further, the TGI in [10] was greater than 46.4 µM; in experiment [5], greater than 46.4 µM; in experiment [11] it was greater than 31.6 µM; in experiment [6], greater than 46.4 µM.
As to `CCC(=O)CCC1=Nc2nnc(CCCCc3nnc4n3C(=O)C(CCC(=O)CC)=N4)n2C1=O`, the TGI in [2], in experiment [7], in [3], in experiment [4], in experiment [5] and in experiment [6] was greater than 100 µM throughout.
As to `C[Si](C)(C)/C=C/CN1C(=O)CCC1=O`, the TGI in experiment [1], in experiment [2], in experiment [4], in experiment [5] and in [6] was greater than 100 µM each time.
For the compound `CCc1cccc(NC(=O)c2cc(/C=C/c3ccccc3)[nH]c(=S)n2)c1`, the TGI in experiment [1], in experiment [2], in [7], in experiment [3], in experiment [4] and in [5] was greater than 100 µM in each case.

The record behind these values is PubChem BioAssay (NCI).
